Each structure is given as a SMILES string. Counter-ions that a name gives are not always drawn.

The target in the assay is T1, recombinant sEH (Homo sapiens, UniProt P34913).
T1 construct: made in house; host or cells: Sf9 insect cells
T1 sequence (P34913 1-555): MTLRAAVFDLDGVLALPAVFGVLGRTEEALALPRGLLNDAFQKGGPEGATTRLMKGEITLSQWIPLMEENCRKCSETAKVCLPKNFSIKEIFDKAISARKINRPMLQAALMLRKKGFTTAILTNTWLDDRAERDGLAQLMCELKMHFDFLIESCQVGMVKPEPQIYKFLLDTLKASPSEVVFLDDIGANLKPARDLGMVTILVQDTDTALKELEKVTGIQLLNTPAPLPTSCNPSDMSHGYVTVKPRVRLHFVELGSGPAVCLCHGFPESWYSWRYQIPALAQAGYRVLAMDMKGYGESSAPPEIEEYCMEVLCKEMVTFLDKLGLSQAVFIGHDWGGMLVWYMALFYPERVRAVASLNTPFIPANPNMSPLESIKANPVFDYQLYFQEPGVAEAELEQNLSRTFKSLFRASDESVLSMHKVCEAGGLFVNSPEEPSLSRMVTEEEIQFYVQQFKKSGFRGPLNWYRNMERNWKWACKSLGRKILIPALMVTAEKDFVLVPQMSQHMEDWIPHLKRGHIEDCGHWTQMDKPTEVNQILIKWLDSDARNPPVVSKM
Kind of assay: biochemical screening assay for inhibition of soluble epoxide hydrolase (fluorometric, Phome substrate). The essentials: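 Reading fluorescence before substrate addition and after completion corrected for autofluorescence. Reaction: 5 μM Phome, 2 nM recombinant human sEH (Sf9-expressed), compound 0.0001–10 μM, 25 mM Hepes with 0.01% albumin, 15 min pre-incubation then 60 min at 30 °C; IC50 derived from % inhibition.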
As to `O=C(NC1CCCCC1)N[C@H]1CO[C@H]2[C@@H]1OC[C@@H]2Sc1ncc(Cl)cn1` [Example 52, 1-[(3S,3aR,6S,6aS)-6-(5-Chloro-pyrimidin-2-ylsulfanyl)-hexahydro-furo[3,2-b]furan-3-yl]-3-cyclohexyl-urea], the IC50 came out at 1 nM.

Take `O=C(NCCc1ccccc1)N[C@H]1CO[C@H]2[C@@H]1OC[C@@H]2C#Cc1ccsc1` [Example 314, 1-Phenethyl-3-((3S,3aR,6S,-6aR)-6-thiophen-3-ylethynyl-hexahydro-furo[3,2-b]furan-3-yl)-urea]: the 50% inhibitory concentration (IC50) is 33 nM.

For the compound `O=C(NC1CCCCC1)N[C@H]1CO[C@H]2[C@@H]1OC[C@@H]2Oc1ccc(C(F)(F)F)cc1` [Example 101, 1-Cyclohexyl-3-[(3S,3aR,6S,6aS)-6-(4-trifluoromethyl-phenoxy)-hexa-hydro-furo[3,2-b]furan-3-yl]-urea], the IC50 worked out at 4 nM.

`Cc1cc(C)cc(NC(=O)N[C@H]2CO[C@H]3[C@@H]2OC[C@@H]3C#Cc2ccsc2)c1` [Example 302, 1-(3,5-Dimethyl-phenyl)-3-((3S,3aR,6S,6aR)-6-thiophen-3-ylethynyl-hexahydro-furo[3,2-b]furan-3-yl)-urea]: the IC50 was 72 nM.

For `COCCCNC(=O)NC1COC2C(Oc3cccnc3C)COC12` [Example 175, 1-(3-Methoxy-propyl)-3-[(3S,3aR,-6S,6aS)-6-(2-methyl-pyridin-3-yl-oxy)-hexahydro-furo[3,2-b]furan-3-yl]-urea], the 50% inhibitory concentration (IC50) was 975 nM.

As to `Cc1ncccc1O[C@H]1CO[C@H]2[C@@H]1OC[C@@H]2NC(=O)NC(C)c1ccc(S(C)(=O)=O)cc1` (stereo partly drawn) [Example 187, 1-[1-(4-Methanesulfonyl-phenyl)-ethyl]-3-[(3S,3aR,6S,6aS)-6-(2-methyl-pyridin-3-yloxy)-hexahydro-furo[3,2-b]furan-3-yl]-urea], the IC50 amounted to 44 nM.

With `Cc1ncccc1O[C@H]1CO[C@H]2[C@@H]1OC[C@@H]2NC(=O)NCCN1CCCC1=O` [Example 236, 1-[(3S,3aR,6S,6aS)-6-(2-Methyl-pyridin-3-yloxy)-hexahydro-furo[3,2-b]furan-3-yl]-3-[2-(2-oxo-pyrrolidin-1-yl)-ethyl]-urea], the concentration for half-maximal inhibition (IC50) came to 3840 nM.

For `COc1cc(NC(=O)NC2COC3C(CCc4ccsc4)COC23)cc(OC)c1` [Example 361, 1-(3,5-Dimethoxy-phenyl)-3-[(3S,3aR,-6R)-6-((S)-2-thiophen-3-yl-ethyl)-hexahydro-furo[3,2-b]furan-3-yl]-urea], the IC50 came out at 39 nM.

As to `O=C(NCCc1ccccc1)N[C@H]1CO[C@@H]2[C@@H](CCc3ccsc3)CO[C@@H]21` [Example 373, 1-Phenethyl-3-[(3S,3aR,6S,6aR)-6-(2-thiophen-3-yl-ethyl)-hexahydro-furo[3,2-b]furan-3-yl]-urea], the IC50 is 39 nM.

Turning to `NC[C@H]1CO[C@H]2[C@@H]1OC[C@@H]2N(Cc1ccccc1)C(=O)NC1CCCCC1` [Example 7, 1-((3S,3aR,6S,6aR)-6-aminomethyl-hexahydro-furo[3,2-b]furan-3-yl)-1-benzyl-3-cyclohexyl-urea; trifluoroacetate], the IC50 was determined as 258 nM.

On to `Cc1cccc(CNC(=O)NC2COC3C(C#Cc4ccccc4)COC23)c1` [Example 291, 1-(3-Methyl-benzyl)-3-[(3S,3aR,6R)-6-((S)-phenylethynyl)-hexahydro-furo[3,2-b]furan-3-yl]-urea], for which the IC50 came to 37 nM.

`O=C(NC1CCCCC1)N[C@H]1CO[C@H]2[C@@H]1OC[C@@H]2Oc1cc(F)cc(F)c1` [Example 133, 1-Cyclohexyl-3-[(3S,3aR,6S,6aS)-6-(3,5-difluoro-phenoxy)-hexahydro-furo[3,2-b]furan-3-yl]-urea]: the half-inhibitory concentration (IC50) is less than 1 nM.

Regarding `CCCCOc1ccc(NC(=O)NC2COC3C(C=Cc4ccccc4)COC23)cc1` [Example 320, 1-(4-Butoxy-phenyl)-3-[(3S,3aR,6R)-6-((S)-(Z)-styryl)-hexahydro-furo[3,2-b]furan-3-yl]-urea], the IC50 was determined as 140 nM.

Turning to `Cc1ncccc1O[C@H]1CO[C@H]2[C@@H]1OC[C@@H]2NC(=O)NC1CCCC(C)C1C` (stereo partly drawn) [Example 261, 1-(2,3-Dimethyl-cyclohexyl)-3-[(3S,3aR,6S,6aS)-6-(2-methyl-pyridin-3-yloxy)-hexahydro-furo[3,2-b]furan-3-yl]-urea], the half-inhibitory concentration (IC50) stood at 3 nM.

For the compound `O=C(NC1CCCCC1)N[C@H]1CO[C@H]2[C@@H]1OC[C@@H]2Oc1ccc(Cl)nc1` [Example 51, 1-[(3S,3aR,6S,6aS)-6-(6-Chloro-pyridin-3-yloxy)-hexahydro-furo[3,2-b]furan-3-yl]-3-cyclohexyl-urea], the IC50 is 8 nM.

For the compound `Cc1ncccc1O[C@H]1CO[C@H]2[C@@H]1OC[C@@H]2NC(=O)NC[C@H]1C[C@H]2C[C@@H]([C@@H]1C)C2(C)C` [Example 178, 1-[(3S,3aR,6S,6aS)-6-(2-Methyl-pyridin-3-yloxy)-hexahydro-furo[3,2-b]furan-3-yl]-3-((1S,2S,3S,5R)-2,6,6-trimethyl-bicyclo[3.1.1]hept-3-ylmethyl)-urea], the half-inhibitory concentration (IC50) was found to be 5 nM.

With `O=C(NC1CCCCC1)N[C@H]1CO[C@H]2[C@@H]1OC[C@@H]2Oc1ccccc1CN1CCCCC1` [Example 135, 1-Cyclohexyl-3-[(3S,3aR,6S,6aS)-6-(2-piperidin-1-ylmethyl-phenoxy)-hexahydro-furo[3,2-b]furan-3-yl]-urea; trifluoroacetate], the IC50 was 20 nM.

For the compound `Cc1ncccc1O[C@H]1CO[C@H]2[C@@H]1OC[C@@H]2NC(=O)NC1CCC(C)CC1C` (stereo partly drawn) [Example 276, 1-(2,4-Dimethyl-cyclohexyl)-3-[(3S,3aR,6S,6aS)-6-(2-methyl-pyridin-3-yloxy)-hexahydro-furo[3,2-b]furan-3-yl]-urea], the IC50 turned out to be 1 nM.

`Cc1ncccc1O[C@H]1CO[C@H]2[C@@H]1OC[C@@H]2NC(=O)N[C@H]1C[C@@H]2CC[C@H]1C2` [Example 181, 1-(1S,2S,4R)-Bicyclo[2.2.1]hept-2-yl-3-[(3S,3aR,6S,6aS)-6-(2-methyl-pyridin-3-yloxy)-hexahydro-furo[3,2-b]furan-3-yl]-urea]: the IC50 stood at 1 nM.

As to `Cc1cc(C)c(S[C@H]2CO[C@H]3[C@@H]2OC[C@@H]3NC(=O)NC2CCCCC2)cn1` [Example 53, 1-Cyclohexyl-3-[(3S,3aR,6S,6aS)-6-(4,6-dimethyl-pyridin-3-ylsulfanyl)-hexahydro-furo[3,2-b]furan-3-yl]-urea], the 50% inhibitory concentration (IC50) is less than 1 nM.

Take `Cc1cc(CNC(=O)N[C@H]2CO[C@H]3[C@@H]2OC[C@@H]3Oc2cccnc2C)on1` [Example 171, 1-(3-Methyl-isoxazol-5-ylmethyl)-3-[(3S,3aR,6S,6aS)-6-(2-methyl-pyridin-3-yloxy)-hexahydro-furo[3,2-b]furan-3-yl]-urea]: the IC50 was found to be 2350 nM.

For `COC1COCCC1NC(=O)N[C@H]1CO[C@H]2[C@@H]1OC[C@@H]2Oc1cccnc1C` (stereo partly drawn) [Example 78, 1-(3-methoxy-tetrahydro-pyran-4-yl)-3-[(3S,3aR,6S,6aS)-6-(2-methyl-pyridin-3-yloxy)-hexahydro-furo[3,2-b]furan-3-yl]-urea; hydrochloride], the IC50 came to 1330 nM.

Regarding `Cc1ncccc1O[C@H]1CO[C@H]2[C@@H]1OC[C@@H]2NC(=O)NCc1ccccc1OC(F)F` [Example 188, 1-(2-Difluoromethoxy-benzyl)-3-[(3S,3aR,6S,6aS)-6-(2-methyl-pyridin-3-yloxy)-hexahydro-furo[3,2-b]furan-3-yl]-urea], the IC50 came to 1 nM.

In the case of `Cc1ncccc1O[C@H]1CO[C@H]2[C@@H]1OC[C@@H]2NC(=O)NCc1cn(C)cn1` [Example 198, 1-(1-Methyl-1H-imidazol-4-ylmethyl)-3-[(3S,3aR,6S,6aS)-6-(2-methyl-pyridin-3-yloxy)-hexahydro-furo[3,2-b]furan-3-yl]-urea], the half-inhibitory concentration (IC50) was 997 nM.

Consider `Cc1ncccc1OC1COC2C(NC(=O)NC3CC4CCC3(C)C4(C)C)COC12` [Example 231, 1-[(2R,3aS,5S,6S)-6-(2-Methyl-pyridin-3-yloxy)-hexahydro-furo[3,2-b]furan-3-yl]-3-((1R,4R)-1,7,7-trimethyl-bicyclo[2.2.1]hept-2-yl)-urea], for which the half-maximal inhibitory concentration (IC50) is 10 nM.

For `Cc1ncccc1O[C@H]1CO[C@H]2[C@@H]1OC[C@@H]2NC(=O)NCCC1CCCCO1` (stereo partly drawn) [Example 235, 1-[(3S,3aR,6S,6aS)-6-(2-Methyl-pyridin-3-yloxy)-hexahydro-furo[3,2-b]furan-3-yl]-3-[2-(tetrahydro-pyran-2-yl)-ethyl]-urea], the IC50 was found to be 86 nM.

In the case of `O=C(NC1CCCCC1)N[C@H]1CO[C@H]2[C@@H]1OC[C@@H]2Oc1cc(F)ccc1Cl` [Example 131, 1-[(3S,3aR,6S,6aS)-6-(2-Chloro-5-fluoro-phenoxy)-hexahydro-furo[3,2-b]furan-3-yl]-3-cyclohexyl-urea], the IC50 turned out to be 2 nM.

On to `O=C(NC1CCCCC1)N[C@H]1CO[C@H]2[C@@H]1OC[C@@H]2Oc1cccc(CNC2CC2)c1` [Example 128, 1-Cyclohexyl-3-[(3S,3aR,6S,6aS)-6-(3-cyclopropylaminomethyl-phenoxy)-hexahydro-furo[3,2-b]furan-3-yl]-urea; trifluoroacetate], for which the IC50 came out at 10 nM.

Regarding `O=C(NC1CCCCC1)N[C@H]1CO[C@H]2[C@@H]1OC[C@@H]2Oc1ccc(Br)cc1` [Example 138, 1-[(3S,3aR,6S,6aS)-6-(4-Bromo-phenoxy)-hexahydro-furo[3,2-b]furan-3-yl]-3-cyclohexyl-urea], the IC50 was 3 nM.

Values taken from patent US9540391B2, “Isomannide derivatives as inhibitors of soluble epoxide hydrolase” (SANOFI, priority 2013, dated 2017).
